The values that follow come from US9517229B2, “Treatment of breast cancer” (MEDIVATION PROSTATE THERAPEUTICS, INC., priority 2011, dated 2016).

The test system of one experiment is Hs578T cells. Briefly: MTS viable cell assay in Hs578T TNBC cell line. The class given is cell-based. Particulars: RD162′ 10 μM, DHT 10 nM, 9 days, FIG. 8. Here is the method: Viable cells were assayed by MTS assay. Averages of the triplicate data points are shown with standard deviation. ***p<0.001 (two-tail t-test).
In general terms: Tetrazolium assays rely on reduction of a dye to a coloured formazan, in cell work by metabolically active cells.

The subject of experiment [1] is MCF7 cells. As to the kind of experiment: MTT in vitro proliferation assay, DHT-mediated growth in MCF7 cells. The experiment is classed as cell-based. Particulars: 10 μM RD162′ with 10 nM DHT; MTT at various time points; FIG. 1.
A further experiment has as its system BCK4 cells. Briefly: Proliferation assay, DHT-mediated growth in BCK4 cells. The class given is cell-based. To be noted: RD162′ and DHT; FIG. 2.
In experiment [2] the test system is MCF7 cells. As to the kind of experiment: MTT assay, estradiol-mediated growth in MCF7 cells. The class given is cell-based. Particulars: 10 μM RD162′ with 10 nM estradiol (E2); MTT at various time points; FIG. 3. The procedure: MCF7 cells were plated in phenol red-free medium containing charcoal stripped serum. […] An MTT assay was performed at various time points. The values were normalized to an untreated plate read 24 hours after plating to account for differences in cell density.

The test system of experiment [3] is MCF7 cells. As to the kind of experiment: MCF7 luciferase tumors in mammary fat pad of ovariectomized nod/scid mice with DHT pellet. The experiment is classed as in vivo. Particulars: chow containing 50 mg/kg RD162′ from day 22, FIGS. 5A-D.
The next experiment has as its system BT20 cells. As to the kind of experiment: MTT assay in triple negative breast cancer cell line BT20. The class given is cell-based. To be noted: 10 μM RD162′, FIG. 6B.
The subject of the next experiment is MDA468 cells. As to the kind of experiment: MTT assay in triple negative breast cancer cell line MDA468. The class given is cell-based. To be noted: 10 μM RD162′, FIG. 6C.
In experiment [4] the test system is MDA-MB-453 cells. As to the kind of experiment: MTS in vitro proliferation assay, DHT-induced proliferation of MDA-MB-453 cells. The class given is cell-based. To be noted: 10 μM RD162′, 10 nM DHT, FIG. 7A.
The subject of experiment [5] is androgen-dependent luciferase reporter in MDA-kb2 cells. As to the kind of experiment: Luciferase assay in MDA-kb2 cells with androgen-dependent luciferase reporter. The class given is cell-based. Particulars: FIG. 7B. A general note: Reporter assays use an easily measured gene product as a stand-in for the process of interest.
For experiment [6], the system named is MDA-MB-453 cells. As to the kind of experiment: MDA-MB-453 xenograft in mammary fat pad of NOD-SCID-IL2Rgc-/- mice with DHT pellet (Example 7). The class given is in vivo.
Another experiment deals with MDA-MB-453 tumors. As to the kind of experiment: Androgen stimulated MDA-MB-453 orthotopic tumors in NOD-SCID-IL2Rgc-/- mice (Example 10). The class given is in vivo.
In the next experiment the test system is MCF7-TGL cells. Briefly: Estrogen stimulated MCF7-TGL orthotopic tumors in ovariectomized nude mice. The class given is in vivo. Particulars: for BrdU staining of tumor sections, P vs E2 group: BrdU two hours prior to sacrifice, ANOVA with Bonferroni correction, FIG. 11D. The procedure: MCF7-TGL cells stably expressing luciferase were implanted orthotopically in the mammary gland of ovariectomized female nude mice. […] The beginning of treatment is indicated by an arrow. Tumor burden was measured by whole body luminescence. […] Mice were matched on day −3 and treatment began on day 0. * indicates P<0.05, ANOVA with Bonferroni's multiple comparison test correction (FIG. 11A). The total luminescent flux is shown for all individual mice at the day of matching (Day −3) and at the final imaging day (Day 11). * indicates P<0.05, ANOVA with Bonferroni's multiple comparison test correction (FIG. 11B). Images of luminescent signal in the two treatment groups at the day of matching ([…]) and the final day of imaging (day 11) is shown (FIG. 11C). Mice were injected with BrdU two hours prior to sacrifice.
On the technique in general: Dividing cells build labelled thymidine or BrdU into new DNA.

On to `C[C@]12CCC(=O)C[C@@H]1CC[C@@H]1[C@@H]2CC[C@]2(C)[C@@H](O)CC[C@@H]12` [DHT, dihydrotestosterone, reference compound], for which the “growth of Hs578T cells (viable cells)” value in the experiment on Hs578T cells is recorded as “does not increase the growth”.
Turning to `CNC(=O)c1ccc(N2C(=S)N(c3ccc(C#N)c(C(F)(F)F)c3)C(=O)C2(C)C)cc1F` [RD162′, enzalutamide], the “DHT-mediated growth of MCF7 cells” value in the experiment on MCF7 cells [1] is given as “blocks DHT-mediated growth”. In addition, in the experiment on BCK4 cells, the “DHT-mediated growth of BCK4 cells” value is “blocks DHT-mediated growth”. The “estradiol-mediated growth of MCF7 cells” value in the experiment with MCF7 cells [2] is “blocks estradiol-mediated growth”. In addition, the “DHT-mediated tumor growth in vivo (caliper and IVIS imaging)” value in the experiment on MCF7 cells [3] is “inhibits DHT-mediated tumor growth”. Moreover, in the experiment on BT20 cells, the “cell growth of BT20” value is recorded as “inhibits cell growth” and the “cell viability of BT20” value is given as “decreases cell viability”. Moreover, in the experiment on MDA468 cells, the “cell growth of MDA468” value was “inhibits cell growth” and the “cell viability of MDA468” value was “decreases cell viability”. In addition, in the experiment with MDA-MB-453 cells [4], the “proliferation of MDA-MB-453 cells induced by DHT” value is listed as “inhibits proliferation”. For the same molecule, in [5], the “DHT-induced signal in luciferase assay (printed as proliferation)” value is given as “inhibits proliferation induced by DHT in a dose dependent manner”. Also, in the experiment with MDA-MB-453 cells [6] (10 mg/kg/d and 25 mg/kg/d RD162′ by oral gavage, both doses, FIG. 7E), the “DHT induced tumor growth (tumor weight at necropsy)” value is “significantly inhibited DHT induced tumor growth”. Also, the “tumor growth induced by DHT (caliper tumor size)” value with MDA-MB-453 cells [6] (10 mg/kg/d or 25 mg/kg/d RD162′ by oral gavage, either dose, FIG. 7D) is given as “inhibited tumor growth”. Moreover, the “androgen stimulated growth of MDA-MB-453 tumors” value with MDA-MB-453 tumors (RD162′ 10 mg/kg daily oral gavage from 100 mm^3, DHT pellet, FIGS. 10A-D) is “Inhibits Androgen Stimulated Growth”. Also, the “tumor volume, DHT vs DHT+RD162′” value in the experiment on MDA-MB-453 tumors (RD162′ 25 mg/kg by oral gavage started when tumors reached 400 mm^3, weekly caliper, FIG. 10A) is “no significant differences at any time point”. Besides, the “growth of Hs578T cells (viable cells)” value in the experiment with Hs578T cells was “Inhibits the Growth”. Moreover, the “BrdU staining of tumor sections, P vs E2 group” value in the experiment on MCF7-TGL cells is on record as under 0.001. In the experiment on MCF7-TGL cells (chow containing 50 mg/kg RD162′ vs tamoxifen pellet SQ, E2 pellet, FIGS. 11A-C), the “inhibition of estrogen stimulated tumor growth (whole body luminescence)” value is recorded as “as Effective as Tamoxifen”.
In the case of `CC/C(=C(\c1ccccc1)c1ccc(OCCN(C)C)cc1)c1ccccc1` [Tamoxifen, tamoxifen, reference compound], the “BrdU staining of tumor sections, P vs E2 group” value with MCF7-TGL cells is listed as under 0.01.
